Reference: PubChem BioAssay (NCI)
“And” between values parts separate entries of the source, which are not always exact repeats. Equal entries are not always repeated.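 All cell lines were grown in 96-well plates and treated with compound for 48 hours. Here, GI50 denotes the concentration required for 50% inhibition of growth. TGI marks complete inhibition of growth.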

How the values were obtained:
Test in all cases: DTP human tumour cell line panel, 48 h
NCI-H226 lung = system: NCI-H226 lung
SK-MEL-28 melanoma = system: SK-MEL-28 melanoma
SK-MEL-2 melanoma = system: SK-MEL-2 melanoma
SF-539 CNS = system: SF-539 CNS
SR leukemia = system: SR leukemia
SF-295 CNS = system: SF-295 CNS
UACC-257 melanoma = system: UACC-257 melanoma
A498 renal = system: A498 renal

COC(=O)CCC(=O)CC1CC(=O)C2CCCN12 (stereo not drawn)
TGI (NCI-H226 lung): > 100 µM
TGI (SK-MEL-28 melanoma): > 100 µM
TGI (SK-MEL-2 melanoma): > 100 µM
TGI (SF-539 CNS): > 100 µM
TGI (SR leukemia): > 100 µM
TGI (SF-295 CNS): > 100 µM
TGI (UACC-257 melanoma): > 100 µM
TGI (A498 renal): > 100 µM

O=c1[nH]c2cc(Cl)ccc2nc1/C(=N\O)C(O)c1ccc(Cl)cc1Cl (stereo not drawn)
TGI (NCI-H226 lung): > 100 µM
TGI (SK-MEL-28 melanoma): > 100 µM
TGI (SF-539 CNS): > 100 µM
TGI (SR leukemia): > 100 µM
TGI (SF-295 CNS): > 100 µM
TGI (UACC-257 melanoma): > 100 µM

COc1cccc(-n2c3nc(=O)n(C)c(=O)c-3nc3ccccc32)c1
TGI (NCI-H226 lung): 55.6 µM
TGI (SK-MEL-28 melanoma): 61.4 µM
TGI (SK-MEL-2 melanoma): 56 µM
TGI (SF-539 CNS): 27.8 µM
TGI (SF-295 CNS): 29.2 µM
TGI (UACC-257 melanoma): 33.8 µM
TGI (A498 renal): > 100 µM

O=C(Nc1cc(Cl)ccc1Cl)C(=O)C(c1cnc2ccccc2n1)[N+](=O)[O-] (stereo not drawn)
TGI (NCI-H226 lung): > 100 µM
TGI (SK-MEL-28 melanoma): > 100 µM
TGI (SF-539 CNS): > 100 µM
TGI (SR leukemia): > 100 µM
TGI (SF-295 CNS): > 100 µM
TGI (UACC-257 melanoma): > 100 µM
TGI (A498 renal): > 100 µM

O=C1[C@H]2ON(c3ccccc3)C(c3ccc(Cl)cc3)[C@H]2C(=O)N1c1ccc(Cc2ccc(N3C(=O)[C@@H]4ON(c5ccccc5)C(c5ccc(Cl)cc5)[C@@H]4C3=O)cc2)cc1 (stereo partly drawn)
TGI (NCI-H226 lung): > 100 µM
TGI (SK-MEL-28 melanoma): > 100 µM
TGI (SK-MEL-2 melanoma): > 100 µM
TGI (SF-539 CNS): > 100 µM
TGI (SR leukemia): > 100 µM
TGI (SF-295 CNS): > 100 µM
TGI (UACC-257 melanoma): > 100 µM
TGI (A498 renal): > 100 µM

COC(=O)/C(C#N)=C1\CCC(O)N1 (stereo not drawn)
TGI (NCI-H226 lung): > 100 µM
TGI (SK-MEL-28 melanoma): > 100 µM
TGI (SK-MEL-2 melanoma): > 100 µM
TGI (SF-539 CNS): > 100 µM
TGI (SR leukemia): > 100 µM
TGI (SF-295 CNS): > 100 µM
TGI (UACC-257 melanoma): > 100 µM

CN[C@@H](C)[C@H](NC)c1ccccc1
TGI (NCI-H226 lung): > 100 µM
TGI (SK-MEL-28 melanoma): > 100 µM
TGI (SF-539 CNS): > 100 µM
TGI (SF-295 CNS): > 100 µM
TGI (UACC-257 melanoma): > 100 µM

Cc1cc(C)c(C2[C@H]3C(=O)N(c4ccc(Cc5ccc(N6C(=O)[C@@H]7ON(c8ccccc8)C(c8c(C)cc(C)cc8C)[C@@H]7C6=O)cc5)cc4)C(=O)[C@H]3ON2c2ccccc2)c(C)c1 (stereo partly drawn)
TGI (NCI-H226 lung): > 100 µM
TGI (SK-MEL-28 melanoma): > 100 µM
TGI (SK-MEL-2 melanoma): > 100 µM
TGI (SF-539 CNS): > 100 µM
TGI (SR leukemia): > 100 µM
TGI (SF-295 CNS): > 100 µM
TGI (UACC-257 melanoma): > 100 µM
TGI (A498 renal): > 100 µM

O=C1CC2C(=O)N(Cc3ccccc3)C1C=C2S(=O)(=O)c1ccccc1 (stereo not drawn)
TGI (NCI-H226 lung): > 100 µM
TGI (SK-MEL-28 melanoma): > 100 µM
TGI (SF-539 CNS): > 100 µM
TGI (SR leukemia): > 100 µM
TGI (SF-295 CNS): > 100 µM
TGI (UACC-257 melanoma): > 100 µM
TGI (A498 renal): > 100 µM

CC(=O)c1sc(-c2nc(C)c(C(=O)/C=C\c3ccc(/C=C\C(=O)c4sc(-c5nc(C)c(C(C)=O)s5)nc4C)cc3)s2)nc1C
TGI (NCI-H226 lung): > 100 µM
TGI (SK-MEL-28 melanoma): > 100 µM
TGI (SK-MEL-2 melanoma): > 100 µM
TGI (SF-539 CNS): > 100 µM
TGI (SR leukemia): > 100 µM
TGI (SF-295 CNS): > 100 µM
TGI (UACC-257 melanoma): > 100 µM

C=CCNC(=O)N(CCC)CCCCC(NC(C)=O)C(=O)NCc1ccccc1 (stereo not drawn)
TGI (NCI-H226 lung): > 100 µM
TGI (SK-MEL-28 melanoma): > 100 µM
TGI (SK-MEL-2 melanoma): > 100 µM
TGI (SF-539 CNS): > 100 µM
TGI (SF-295 CNS): > 100 µM
TGI (UACC-257 melanoma): > 100 µM
TGI (A498 renal): > 100 µM

Nc1nc(CCl)nc(Nc2ccccc2)n1
TGI (NCI-H226 lung): 43.3 µM
TGI (SK-MEL-28 melanoma): 33.2 µM
TGI (SK-MEL-2 melanoma): 44.1 µM
TGI (SF-539 CNS): 70.7 µM
TGI (SR leukemia): 33.7 µM
TGI (SF-295 CNS): 81.7 µM
TGI (UACC-257 melanoma): 71.9 µM

COC(=O)/C(C)=C/[N+](=O)[O-]
TGI (SK-MEL-2 melanoma): 38.7 µM
TGI (SF-539 CNS): 33.2 µM
TGI (SF-295 CNS): 30.3 µM
TGI (UACC-257 melanoma): 29.3 µM
TGI (A498 renal): 43.3 µM

COc1ccc(C2c3cc(OC)c(OC)cc3C(Cc3ccc([N+](=O)[O-])cc3)C2c2ccc([N+](=O)[O-])cc2)cc1OC (stereo not drawn)
TGI (NCI-H226 lung): > 100 µM
TGI (SK-MEL-28 melanoma): > 100 µM
TGI (SK-MEL-2 melanoma): > 100 µM
TGI (SF-539 CNS): > 100 µM
TGI (SF-295 CNS): > 100 µM
TGI (UACC-257 melanoma): > 100 µM
TGI (A498 renal): > 100 µM

COC(=O)/C(C=O)=C/Sc1ccccc1
TGI (NCI-H226 lung): 44.6 µM
TGI (SK-MEL-28 melanoma): 59.2 µM
TGI (SK-MEL-2 melanoma): 91.8 µM
TGI (SF-539 CNS): 33.2 µM
TGI (SR leukemia): > 100 µM
TGI (SF-295 CNS): > 100 µM
TGI (UACC-257 melanoma): > 100 µM

C1C[OH+]CCNCC[OH+]CC[OH+]CCN1.[Cl-].[Pt+4]
GI50 (NCI-H226 lung): > 100 µM
TGI (NCI-H226 lung): > 100 µM
GI50 (SK-MEL-28 melanoma): > 100 µM
TGI (SK-MEL-28 melanoma): > 100 µM
GI50 (SK-MEL-2 melanoma): > 100 µM
TGI (SK-MEL-2 melanoma): > 100 µM
GI50 (SF-539 CNS): > 100 µM
TGI (SF-539 CNS): > 100 µM
GI50 (SF-295 CNS): > 100 µM
TGI (SF-295 CNS): > 100 µM
GI50 (UACC-257 melanoma): > 100 µM
TGI (UACC-257 melanoma): > 100 µM
GI50 (A498 renal): > 100 µM
TGI (A498 renal): > 100 µM

N.N.N.N.[Cl-].[Co+3].[N-]=[N+]=[N-].[N-]=[N+]=[N-]
GI50 (SK-MEL-28 melanoma): 60.3 µM
TGI (SK-MEL-28 melanoma): > 100 µM
GI50 (SK-MEL-2 melanoma): > 100 µM
TGI (SK-MEL-2 melanoma): > 100 µM
GI50 (SF-539 CNS): 48.8 µM
TGI (SF-539 CNS): > 100 µM
GI50 (SF-295 CNS): > 100 µM
TGI (SF-295 CNS): > 100 µM
GI50 (UACC-257 melanoma): > 100 µM
TGI (UACC-257 melanoma): > 100 µM
GI50 (A498 renal): > 100 µM
TGI (A498 renal): > 100 µM

CC12CCCCC1(C)C2Sc1ccccc1 (stereo not drawn)
TGI (NCI-H226 lung): > 100 µM
TGI (SK-MEL-28 melanoma): > 100 µM
TGI (SK-MEL-2 melanoma): 50.7 µM
TGI (SF-539 CNS): > 100 µM
TGI (SF-295 CNS): > 100 µM
TGI (UACC-257 melanoma): > 100 µM
TGI (A498 renal): 98.2 µM

C[C@@]12CCCc3coc(c31)C(=O)c1cc3c(cc12)C(=O)C=CC3=O
TGI (NCI-H226 lung): > 1 µM
TGI (SK-MEL-28 melanoma): > 1 µM
GI50 (SK-MEL-2 melanoma): > 1 µM
TGI (SK-MEL-2 melanoma): > 1 µM and 29 µM
GI50 (SF-539 CNS): < 1 µM
TGI (SF-539 CNS): > 1 µM and 30.1 µM
TGI (SF-295 CNS): > 1 µM
GI50 (UACC-257 melanoma): > 1 µM
TGI (UACC-257 melanoma): > 1 µM and 29.9 µM
TGI (A498 renal): > 100 µM

Nc1ccn(C2(CO)C=C(CO)C(O)C2O)c(=O)n1 (stereo not drawn)
TGI (NCI-H226 lung): > 25.8 µM
TGI (SK-MEL-28 melanoma): > 25.8 µM
TGI (SK-MEL-2 melanoma): > 25.8 µM
TGI (SF-539 CNS): > 25.8 µM
TGI (SR leukemia): > 25.8 µM
TGI (UACC-257 melanoma): > 25.8 µM
TGI (A498 renal): > 25.8 µM
